According to patent US10782295B2, “Cysteine-reactive ligand discovery in proteomes” (THE SCRIPPS RESEARCH INSTITUTE, priority 2013, dated 2020):

How the values were obtained:
Assay in all cases: competitive isoTOP-ABPP, MDA-MB-231 soluble proteome
Format in all cases: binding
FN3KRP = target: T1, FN3KRP (Homo sapiens, UniProt Q9HA64); settings: 100 μM LDE, 60 min; peptide ATGHSGGGC*ISQGR
T1 construct: directly in native proteomes; endogenous in cells; host or cells: MDA-MB-231
T1 sequence (Q9HA64 1-309): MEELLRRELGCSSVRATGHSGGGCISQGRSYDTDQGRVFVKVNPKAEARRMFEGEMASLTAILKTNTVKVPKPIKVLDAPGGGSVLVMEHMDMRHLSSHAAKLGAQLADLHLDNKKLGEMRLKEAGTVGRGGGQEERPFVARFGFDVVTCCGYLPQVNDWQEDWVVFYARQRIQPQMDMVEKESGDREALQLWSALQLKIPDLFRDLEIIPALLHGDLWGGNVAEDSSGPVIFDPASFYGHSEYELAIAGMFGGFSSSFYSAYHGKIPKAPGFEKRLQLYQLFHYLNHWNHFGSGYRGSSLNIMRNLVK
Procedure: (§1) Here, we envisioned that isoTOP-ABPP could be advanced to discover and quantify reactions between cysteines in proteomes and any electrophilic compound. In this advanced, ‘competitive’ version of isoTOP-ABPP (FIG. 1a), a proteome is treated with an electrophile (experimental sample) or DMSO (control sample). Both proteomic samples are then labeled with the IA probe and conjugated by CuAAC to light and heavy azide-biotin tags, respectively. The light and heavy samples are then mixed and subjected to our described isoTOP-ABPP protocol for enrichment, identification, and quantification of IA-labeled cysteines^30. Electrophile-modified cysteines are quantified by measuring the MS1 chromatographic peak ratios (R values) for heavy (DMSO-treated) over light (electrophile-treated) samples, with higher R values reflecting greater sensitivity to the electrophile. In this format, competitive isoTOP-ABPP can assay electrophiles against 1000+ cysteines in parallel directly in native proteomes without requiring any chemical modification to the electrophiles themselves.
(§2) Competitive isoTOP-ABPP experiments were performed in quadruplicate using the soluble proteome of the human breast cancer cell line MDA-MB-231 cell line. Proteomes were treated with 100 μM HNE, 15d-PGJ2, or 2-HD, for 60 minutes, followed by the IA-probe (100 μM, 60 min) A total of ˜1400 cysteine reactivities were quantified across the aggregate data set, with at least 900 cysteine reactivities quantified for each LDE (FIG. 2a) more than 750 of which were quantified for all the three electrophiles.
(§3) The MDA-MB-231 cell proteome was treated with varying concentrations of HNE (5, 10, 50, 100 and 500 μM) for 60 min and then the IA-labeling profile of each reaction was quantitatively compared to a DMSO-control sample by isoTOP-ABPP.
(§4) HNE was purchased from EMD biosciences, 15d-PGJ2 was purchased from Cayman Chemicals and 2-HD was purchased from Santa Cruz Biotechnology. Proteome samples were diluted to a 4 mg protein/mL solution in PBS. For each profiling experiment, one aliquot of the proteome sample (0.5 mL) was treated with 100 μM of LDE using 5 μL of a 10 mM stock and the other aliquot was treated with 5 μL of either ethanol (for HNE and 15d-PGJ2) or DMSO (for 2-HD) as control. For the concentration-dependent profiling experiments using HNE, aliquots of the proteomes (0.5 mL each) were treated with 5, 10, 50, 100 and 500 μM of HNE using 5 μL of 0.5, 1.0, 5, 10 and 50 mM of stock solution, respectively. After 60 minutes of treatment at room temperature, both the LDE-treated and control aliquots were passed through a NAP-5 Sephadex column (GE healthcare) to remove any unreacted LDE. The volume of each aliquot was increased to 1 mL with the concentration at 2 mg/mL after this step.
(§5) Each of the control and LDE-treated proteome samples (˜2 mg protein/mL in 1 mL volume) was treated with 100 μM of IA-probe using 10 μL of a 10 mM stock in DMSO. The labeling reactions were incubated at room temperature for 1 hour. Click chemistry (acetylene-azide cycloaddition) was performed by the addition of 100 μM of either the Heavy-TEV-Tag (for the control sample) or Light-TEV-Tag (for the LDE-treated sample) (20 μL of a 5 mM stock), 1 mM TCEP (fresh 50× stock in water), 100 μM ligand (17× stock in DMSO:t-Butanol 1:4) and 1 mM CuSO4 (50× stock in water). Samples were allowed to react at room temperature for 1 hour. After the click chemistry step, the light and heavy-labeled samples were mixed together and centrifuged (5900×g, 4 min, 4° C.) to pellet the precipitated proteins.
(§6) The pellets were washed twice in cold MeOH, after which the pellet was solubilized in PBS containing 1.2% SDS via sonication and heating (5 min, 80° C.). Samples were subjected to streptavidin enrichment of probe-labeled proteins, sequential on-bead trypsin and TEV digestion, and liquid chromatography-mass spectrometry (LC-MS) analysis according to the published isoTOP-ABPP protocol^30. […]

EEF2 = target: T2, EEF2 (Homo sapiens, UniProt P13639); settings: 100 μM LDE, 60 min; peptide STLTDSLVC*K
T2 construct: directly in native proteomes; endogenous in cells; host or cells: MDA-MB-231
Procedure: as §1, §2, §3, §4, §5, §6

ZAK = ZAK (Homo sapiens, UniProt Q9NYL2); design: directly in native proteomes; endogenous in cells; host or cells: MDA-MB-231; settings: 60 min; for R value (isoTOP-ABPP ratio heavy/light) for IA-labeled cysteine of ZAK: 100 μM LDE, peptide FDDLQFFENC*GGGSFGSVYR
Chain of ZAK (Q9NYL2 whole entry): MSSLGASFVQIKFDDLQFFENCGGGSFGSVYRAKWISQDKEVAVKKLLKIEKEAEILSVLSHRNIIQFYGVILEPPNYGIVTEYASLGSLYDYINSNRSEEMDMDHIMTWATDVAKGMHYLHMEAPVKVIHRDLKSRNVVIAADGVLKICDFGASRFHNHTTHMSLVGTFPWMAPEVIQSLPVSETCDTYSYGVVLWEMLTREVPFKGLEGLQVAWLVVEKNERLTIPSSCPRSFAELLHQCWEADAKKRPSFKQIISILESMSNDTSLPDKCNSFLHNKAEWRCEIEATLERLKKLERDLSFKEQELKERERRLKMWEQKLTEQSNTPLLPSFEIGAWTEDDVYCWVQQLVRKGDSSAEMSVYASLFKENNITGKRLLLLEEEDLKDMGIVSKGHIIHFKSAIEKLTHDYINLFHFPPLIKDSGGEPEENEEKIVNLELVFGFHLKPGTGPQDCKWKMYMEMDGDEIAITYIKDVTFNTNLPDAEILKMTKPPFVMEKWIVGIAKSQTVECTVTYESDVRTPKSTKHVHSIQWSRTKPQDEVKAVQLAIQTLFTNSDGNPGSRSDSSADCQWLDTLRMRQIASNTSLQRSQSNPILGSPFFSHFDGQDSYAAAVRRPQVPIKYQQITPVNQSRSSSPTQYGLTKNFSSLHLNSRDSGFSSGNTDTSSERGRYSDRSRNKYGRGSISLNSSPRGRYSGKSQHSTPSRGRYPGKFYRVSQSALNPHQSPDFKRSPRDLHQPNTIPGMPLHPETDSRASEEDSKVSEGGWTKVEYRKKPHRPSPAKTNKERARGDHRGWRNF
Procedure: as §1, §2, §3
as §4, with “step. […]” for “step.”

| SMILES | R value (isoTOP-ABPP ratio heavy/light) for IA-labeled cysteine of FN3KRP (FN3KRP) | R value (isoTOP-ABPP ratio heavy/light) for IA-labeled cysteine of EEF2 (EEF2) | R value (isoTOP-ABPP ratio heavy/light) for IA-labeled cysteine of ZAK (ZAK) | blockade of IA-probe labeling of Cys22 of ZAK (ZAK; 100 μM) |
| --- | --- | --- | --- | --- |
| CCCCCCCCCCCCC/C=C/C=O [2-HD, 2-trans-hexadecenal] | 1.03 | 1.06 | 1.05 |  |
| CCCCCC(O)/C=C/C=O (stereo not shown) [4-HNE, 4-Hydroxynonenal] | >15 | 11.63 | >15 | completely blocked |
| CCCCC/C=C/C=C1/C(=O)C=C[C@@H]1C/C=C\CCCC(=O)O [PGJ2, 15-deoxy-Δ12,14-prostaglandin J2] | 1.62 | 3.31 | 4.24 |  |
